Measured values reported in patent publication US8580794B2 (AbbVie Inc., priority 2009, dated 2013).
pKi: −log10 of the molar value.

Target: GST-Bc1-2 (Homo sapiens, UniProt P10415)
Assay: Time Resolved-Fluorescence Resonance Energy Transfer (TR-FRET) Bcl-2 binding assay with F-Bak peptide probe
Conditions: GST-Bcl-2 1 nM, F-Bak probe 100 nM, Tb-anti-GST 1 nM; '<' = below limit of detection; read-out: TR-FRET Bcl-2 Binding Ki

Chain of GST-Bc1-2 (P10415 whole entry): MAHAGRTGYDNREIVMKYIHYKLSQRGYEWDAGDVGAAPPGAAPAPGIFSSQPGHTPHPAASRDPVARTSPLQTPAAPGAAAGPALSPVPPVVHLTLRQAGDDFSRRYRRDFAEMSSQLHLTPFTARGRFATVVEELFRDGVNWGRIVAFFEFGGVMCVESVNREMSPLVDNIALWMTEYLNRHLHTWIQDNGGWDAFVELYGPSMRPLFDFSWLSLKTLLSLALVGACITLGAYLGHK

With CC1(C)CCC(CN2CCN(c3ccc(C(=O)NS(=O)(=O)c4ccc(OCC#CCN5CCOCC5)c([N+](=O)[O-])c4)c(Oc4cnc5[nH]ccc5c4)c3)CC2)=C(c2ccc(Cl)cc2)C1 [Example 68, 4-(4-{[2-(4-chlorophenyl)-4,4-dimethylcyclohex-1-en-1-yl]methyl}piperazin-1-yl)-N-({4-[(4-morpholin-4-ylbut-2-ynyl)oxy]-3-nitrophenyl}sulfonyl)-2-(1H-pyrrolo[2,3-b]pyridin-5-yloxy)benzamide] as the compound, how does the pKi read?
The pKi was 10.92.

CC1(C)CCC(CN2CCN(c3ccc(C(=O)NS(=O)(=O)c4cnc(O[C@@H]5CCN(CC(F)F)C5)c(Cl)c4)c(Oc4cnc5[nH]ccc5c4)c3)CC2)=C(c2ccc(Cl)cc2)C1 [Example 261, N-[(5-chloro-6-{[(3R)-1-(2,2-difluoroethyl)pyrrolidin-3-yl]oxy}pyridin-3-yl)sulfonyl]-4-(4-{[2-(4-chlorophenyl)-4,4-dimethylcyclohex-1-en-1-yl]methyl}piperazin-1-yl)-2-(1H-pyrrolo[2,3-b]pyridin-5-yloxy)benzamide] was tested. Which pKi did it give?
Its pKi is 9.87.

How did the pKi turn out when CC1(C)CCC(CN2CCN(c3ccc(C(=O)NS(=O)(=O)c4ccc(NC[C@@H]5CC[C@H](O)C5)c([N+](=O)[O-])c4)c(Oc4cnc5[nH]ccc5c4)c3)CC2)=C(c2ccc(Cl)cc2)C1 [Example 159, 4-(4-{[2-(4-chlorophenyl)-4,4-dimethylcyclohex-1-en-1-yl]methyl}piperazin-1-yl)-N-{[4-({[(1R,3S)-3-hydroxycyclopentyl]methyl}amino)-3-nitrophenyl]sulfonyl}-2-(1H-pyrrolo[2,3-b]pyridin-5-yloxy)benzamide] was run?
The pKi was > 11.00.

With CC1(C)CCC(CN2CCN(c3ccc(C(=O)NS(=O)(=O)c4ccc(OCC5CCOCC5)c(C#N)c4)c(Oc4cnc5[nH]ccc5c4)c3)CC2)=C(c2ccc(Cl)cc2)C1 [Example 284, 4-(4-{[2-(4-chlorophenyl)-4,4-dimethylcyclohex-1-en-1-yl]methyl}piperazin-1-yl)-N-{[3-cyano-4-(tetrahydro-2H-pyran-4-ylmethoxy)phenyl]sulfonyl}-2-(1H-pyrrolo[2,3-b]pyridin-5-yloxy)benzamide] as the compound, how does the pKi read?
The pKi was 10.62.

CC1(C)CCC(CN2CCN(c3ccc(C(=O)NS(=O)(=O)c4ccc(NC5CCN([C@H]6CCOC[C@H]6F)CC5)c([N+](=O)[O-])c4)c(Oc4cnc5[nH]ccc5c4)c3)CC2)=C(c2ccc(Cl)cc2)C1 (relative stereo) [Example 115, 4-(4-{[2-(4-chlorophenyl)-4,4-dimethylcyclohex-1-en-1-yl]methyl}piperazin-1-yl)-N-{[4-({1-[cis-3-fluorotetrahydro-2H-pyran-4-yl]piperidin-4-yl}amino)-3-nitrophenyl]sulfonyl}-2-(1H-pyrrolo[2,3-b]pyridin-5-yloxy)benzamide] was tested. Which pKi did it give?
Its pKi is > 11.00.

CC1(C)CCC(CN2CCN(c3ccc(C(=O)NS(=O)(=O)c4ccc(NC5CCN(C(CF)CF)CC5)c([N+](=O)[O-])c4)c(Oc4cnc5[nH]ccc5c4)c3)CC2)=C(c2ccc(Cl)cc2)C1 [Example 95, 4-(4-{[2-(4-chlorophenyl)-4,4-dimethylcyclohex-1-en-1-yl]methyl}piperazin-1-yl)-N-{[4-({1-[2-fluoro-1-(fluoromethyl)ethyl]piperidin-4-yl}amino)-3-nitrophenyl]sulfonyl}-2-(1H-pyrrolo[2,3-b]pyridin-5-yloxy)benzamide] was tested. Which pKi did it give?
Its pKi is 10.85.

With CC1(C)CCC(CN2CCN(c3ccc(C(=O)NS(=O)(=O)c4ccc(NC[C@H]5CC[C@H](C#N)CC5)c([N+](=O)[O-])c4)c(Oc4cnc5[nH]ccc5c4)c3)CC2)=C(c2ccc(Cl)cc2)C1 [Example 276, 4-(4-{[2-(4-chlorophenyl)-4,4-dimethylcyclohex-1-en-1-yl]methyl}piperazin-1-yl)-N-[(4-{[(trans-4-cyanocyclohexyl)methyl]amino}-3-nitrophenyl)sulfonyl]-2-(1H-pyrrolo[2,3-b]pyridin-5-yloxy)benzamide] as the compound, how does the pKi read?
Its pKi is > 11.00.

With CC1(C)CCC(CN2CCN(c3ccc(C(=O)NS(=O)(=O)c4ccc5nc[nH]c(=O)c5c4)c(Oc4cnc5[nH]ccc5c4)c3)CC2)=C(c2ccc(Cl)cc2)C1 [Example 70, 4-(4-{[2-(4-chlorophenyl)-4,4-dimethylcyclohex-1-en-1-yl]methyl}piperazin-1-yl)-N-[(4-oxo-3,4-dihydroquinazolin-6-yl)sulfonyl]-2-(1H-pyrrolo[2,3-b]pyridin-5-yloxy)benzamide] as the compound, how does the pKi read?
Its pKi is 8.40.

CC(=O)N1CCOC(CNc2ccc(S(=O)(=O)NC(=O)c3ccc(N4CCN(CC5=C(c6ccc(Cl)cc6)CC(C)(C)CC5)CC4)cc3Oc3cnc4[nH]ccc4c3)cc2[N+](=O)[O-])C1 (stereo not shown) [Example 136, N-[(4-{[(4-acetylmorpholin-2-yl)methyl]amino}-3-nitrophenyl)sulfonyl]-4-(4-{[2-(4-chlorophenyl)-4,4-dimethylcyclohex-1-en-1-yl]methyl}piperazin-1-yl)-2-(1H-pyrrolo[2,3-b]pyridin-5-yloxy)benzamide] was tested. Which pKi did it give?
The pKi was > 11.00.

With CC1(C)CCC(CN2CCN(c3ccc(C(=O)NS(=O)(=O)c4ccc(OCc5ccoc5)c([N+](=O)[O-])c4)c(Oc4cnc5[nH]ccc5c4)c3)CC2)=C(c2ccc(Cl)cc2)C1 [Example 279, 4-(4-{[2-(4-chlorophenyl)-4,4-dimethylcyclohex-1-en-1-yl]methyl}piperazin-1-yl)-N-{[4-(3-furylmethoxy)-3-nitrophenyl]sulfonyl}-2-(1H-pyrrolo[2,3-b]pyridin-5-yloxy)benzamide] as the compound, how does the pKi read?
Its pKi is 10.46.

COCCOCCN1CC[C@@H](Nc2ccc(S(=O)(=O)NC(=O)c3ccc(N4CCN(CC5=C(c6ccc(Cl)cc6)CC(C)(C)CC5)CC4)cc3Oc3cnc4[nH]ccc4c3)cc2[N+](=O)[O-])C1 [Example 254, 4-(4-{[2-(4-chlorophenyl)-4,4-dimethylcyclohex-1-en-1-yl]methyl}piperazin-1-yl)-N-{[4-({(3R)-1-[2-(2-methoxyethoxy)ethyl]pyrrolidin-3-yl}amino)-3-nitrophenyl]sulfonyl}-2-(1H-pyrrolo[2,3-b]pyridin-5-yloxy)benzamide] was tested. Which pKi did it give?
The pKi was > 11.00.

How did the pKi turn out when CC1(C)CCC(CN2CCN(c3ccc(C(=O)NS(=O)(=O)c4cnc(OCC5CCOCC5)c(S(C)(=O)=O)c4)c(Oc4cnc5[nH]ccc5c4)c3)CC2)=C(c2ccc(Cl)cc2)C1 [Example 219, 4-(4-{[2-(4-chlorophenyl)-4,4-dimethylcyclohex-1-en-1-yl]methyl}piperazin-1-yl)-N-{[5-(methylsulfonyl)-6-(tetrahydro-2H-pyran-4-ylmethoxy)pyridin-3-yl]sulfonyl}-2-(1H-pyrrolo[2,3-b]pyridin-5-yloxy)benzamide] was run?
Its pKi is 8.92.

How did the pKi turn out when CC1(C)CCC(CN2CCN(c3ccc(C(=O)NS(=O)(=O)c4cnc(O[C@H]5CC[C@H](N6CCOCC6)CC5)c(Br)c4)c(Oc4cnc5[nH]ccc5c4)c3)CC2)=C(c2ccc(Cl)cc2)C1 [Example 124, Trans-N-({5-bromo-6-[(4-morpholin-4-ylcyclohexyl)oxy]pyridin-3-yl}sulfonyl)-4-(4-{[2-(4-chlorophenyl)-4,4-dimethylcyclohex-1-en-1-yl]methyl}piperazin-1-yl)-2-(1H-pyrrolo[2,3-b]pyridin-5-yloxy)benzamide] was run?
Its pKi is > 11.00.

How did the pKi turn out when CC1(C)CCC(CN2CCN(c3ccc(C(=O)NS(=O)(=O)c4ccc(NC[C@@H]5CCN(C6CCOCC6)C5)c([N+](=O)[O-])c4)c(Oc4cnc5[nH]ccc5c4)c3)CC2)=C(c2ccc(Cl)cc2)C1 [Example 145, 4-(4-{[2-(4-chlorophenyl)-4,4-dimethylcyclohex-1-en-1-yl]methyl}piperazin-1-yl)-N-{[3-nitro-4-({[(3S)-1-tetrahydro-2H-pyran-4-ylpyrrolidin-3-yl]methyl}amino)phenyl]sulfonyl}-2-(1H-pyrrolo[2,3-b]pyridin-5-yloxy)benzamide] was run?
The pKi was > 11.00.

How did the pKi turn out when CC1(C)CCC(CN2CCN(c3ccc(C(=O)NS(=O)(=O)c4ccc(NC5CCN(C6CCOC(C)(C)C6)CC5)c([N+](=O)[O-])c4)c(Oc4cnc5[nH]ccc5c4)c3)CC2)=C(c2ccc(Cl)cc2)C1 (stereo not shown) [Example 141, 4-(4-{[2-(4-chlorophenyl)-4,4-dimethylcyclohex-1-en-1-yl]methyl}piperazin-1-yl)-N-[(4-{[1-(2,2-dimethyltetrahydro-2H-pyran-4-yl)piperidin-4-yl]amino}-3-nitrophenyl)sulfonyl]-2-(1H-pyrrolo[2,3-b]pyridin-5-yloxy)benzamide] was run?
The pKi was > 11.00.

CC1(C)CCC(CN2CCN(c3ccc(C(=O)NS(=O)(=O)c4cnc(NCC5(F)CCOCC5)c(Cl)c4)c(Oc4cnc5[nH]ccc5c4)c3)CC2)=C(c2ccc(Cl)cc2)C1 [Example 242, N-[(5-chloro-6-{[(4-fluorotetrahydro-2H-pyran-4-yl)methyl]amino}pyridin-3-yl)sulfonyl]-4-(4-{[2-(4-chlorophenyl)-4,4-dimethylcyclohex-1-en-1-yl]methyl}piperazin-1-yl)-2-(1H-pyrrolo[2,3-b]pyridin-5-yloxy)benzamide] was tested. Which pKi did it give?
Its pKi is 10.24.

CC1(C)C=CC(c2ccc(Cl)cc2)=C(CN2CCN(c3ccc(C(=O)NS(=O)(=O)c4ccc(NCC5CCOCC5)c([N+](=O)[O-])c4)c(Oc4cnc5[nH]ccc5c4)c3)CC2)C1 [Example 206, 4-(4-{[2-(4-chlorophenyl)-5,5-dimethylcyclohexa-1,3-dien-1-yl]methyl}piperazin-1-yl)-N-({3-nitro-4-[(tetrahydro-2H-pyran-4-ylmethyl)amino]phenyl}sulfonyl)-2-(1H-pyrrolo[2,3-b]pyridin-5-yloxy)benzamide] was tested. Which pKi did it give?
The pKi was 10.44.

With CC1(C)CCC(CN2CCN(c3ccc(C(=O)NS(=O)(=O)c4ccc(N[C@@H]5CCN(C6CC6)C5)c([N+](=O)[O-])c4)c(Oc4cnc5[nH]ccc5c4)c3)CC2)=C(c2ccc(Cl)cc2)C1 [Example 144, 4-(4-{[2-(4-chlorophenyl)-4,4-dimethylcyclohex-1-en-1-yl]methyl}piperazin-1-yl)-N-[(4-{[(3R)-1-cyclopropylpyrrolidin-3-yl]amino}-3-nitrophenyl)sulfonyl]-2-(1H-pyrrolo[2,3-b]pyridin-5-yloxy)benzamide] as the compound, how does the pKi read?
The pKi was > 11.00.

How did the pKi turn out when CC1(C)CCC(CN2CCN(c3ccc(C(=O)NS(=O)(=O)c4ccc(NCC5(F)CCOCC5)c([N+](=O)[O-])c4)c(Oc4cnc5[nH]ccc5c4)c3)CC2)=C(c2ccc(Cl)cc2)C1 [Example 138, 4-(4-{[2-(4-chlorophenyl)-4,4-dimethylcyclohex-1-en-1-yl]methyl}piperazin-1-yl)-N-[(4-{[(4-fluorotetrahydro-2H-pyran-4-yl)methyl]amino}-3-nitrophenyl)sulfonyl]-2-(1H-pyrrolo[2,3-b]pyridin-5-yloxy)benzamide] was run?
Its pKi is > 11.00.
